Assay results reported in patent publication US9422306B2, “Artemisinin compounds and synthesis and use thereof” (University of Washington Through Its Center for …, priority 2012, dated 2016).
Like-named read-outs stand apart in the source and are kept apart here.

How the values were obtained:
MDA-MB-231 cells = experiment: MTT cell viability assay, MDA-MB-231 breast cancer cells; assay type: cell-based; conditions: for IC50: read-out: MDA MB 231 IC50; for Selectivity MDA MB 231: values match MCF-10A IC50 / MDA MB 231 IC50, formula not given
Protocol: (§1) In vitro toxicity of the compounds described herein were tested on two breast cancer cell lines, MDA-MB-231 and BT-474. These cell lines represent triple negative and HER2-positive breast cancers, respectively. BT474 cell and MDA-MB-231 cells were maintained in DMEM media supplemented with 10% v/v FBS. On reaching confluency (1×10^6 cells/mL in a 25 mL flask), 1×10^6 cells were seeded in 25 mL of fresh supplemented media. The cells were incubated under humidified air containing 5% CO2 at 37° C. Cell density was kept below 1×10^6 cells/mL to ensure exponential growth and to avoid differentiation. Cells were only used between passages 5 and 15 to prevent cell differentiation.
(§2) A standard MTT assay was used to determine the cell viability at 48 hr after an artemisinin derivative was added to the culture medium. Cell viability was above 95% for all experiments. The viable cell count was based on trypan blue exclusion from the cells and was performed in a hemocytometer using a light microscope. To 50 μL of cells was added 20 μL of trypan blue 0.4% solution and 30 μL D-Hanks solution was counted. During experiments cells were exposed to drug stock solutions which were made up in 100% DMSO and the final solvent concentration was 1% v/v in each incubation. Each concentration in every experiment was carried out in triplicate.
(§3) BT474 (2000 cells/100 μL) or MDA-MB-231 cells (7500 cells/100 μL) were seeded on a 96 well plate respectively, and incubated for 24 hr at 37° C. The medium was removed, and replaced it with 200 μL of the complete medium containing artemisinin derivatives. The cells were incubated for 48 hr at 37° C., the medium was removed, and replaced it with 100 μL of fresh complete medium. 10 μL of […] MTT stock solution (D-Hanks) was added to each well. After incubating for 3 hr at 37° C., formazan crystals were solubilized in 50 μL of DMSO and absorbance was measured at 570 nm with BIO-RAD model 680 microplate reader. All data were analyzed using Microsoft Excel. IC50 values were determined with Graphpad Prism 5.

BT474 cells = experiment: MTT cell viability assay, BT474 breast cancer cells; assay type: cell-based; conditions: for IC50: read-out: BT474 IC50; for Selectivity BT474: values match MCF-10A IC50 / BT474 IC50, formula not given
Protocol: as §1, §2, §3

MCF-10A = MCF-10A IC50; assay type: cell-based
NCI 60 cell lines = conditions: panel of NCI 60 cell lines; cited from earlier work
[1] = tested on: PCa cell lines DU 145, PC-3, C4-2, and LNCaP; experiment: Cytotoxicity against a panel of four PCa cell lines; assay type: cell-based; conditions: DU 145, PC-3, C4-2, LNCaP
Protocol: The cytotoxicity of artemisinin dimers, dimer-2Py, was evaluated against a panel of four PCa cell lines, DU 145, PC-3, C4-2, and LNCaP.

[2] = Homo sapiens, MDA-MB-231, MTT, 48 hr incubation
[3] = Homo sapiens, BT-474, MTT, 48 hr incubation

Structure (SMILES) | IC50 (MDA-MB-231 cells; [2]) [µM] | Selectivity MDA MB 231 (MDA-MB-231 cells) | IC50 (BT474 cells; [3]) [µM] | Selectivity BT474 (BT474 cells) | IC50 (MCF-10A; Homo sapiens, MCF-10A) [µM] | IC50 (MDA-MB-231 cells; MTT, 48 hr incubation) [µM] | IC50 (BT474 cells; MTT, 48 hr incubation) [µM] | IC50 (MCF-10A) [µM] | times more potent than artemisinin monomers such as artesunate (NCI 60 cell lines) | cytotoxicity [1] | times less potent than artemisinin dimer succinate (MDA-MB-231 cells; MDA-MB-231) [times] | IC50 (MDA-MB-231 cells; Homo sapiens, MDA-MB-231, 48 h) [µM] | IC50 (BT474 cells; Homo sapiens, BT-474, 48 h) [µM]
COC(=O)CNC(=O)C(CC[C@H]1O[C@@H]2OC3(C)CCC4[C@H](C)CCC([C@H]1C)[C@]42OO3)N(CCC[C@H]1O[C@@H]2OC3(C)CCC4[C@H](C)CCC([C@H]1C)[C@]42OO3)C(=O)c1cccc(OC)c1OC (stereo partly shown) [Compound 6c] | 12 | 0.48 | 5.8 | 0.98 | 5.7 |  |  |  |  |  |  |  | 
COC(=O)CNC(=O)C(CC[C@H]1O[C@@H]2OC3(C)CCC4[C@H](C)CCC([C@H]1C)[C@]42OO3)N(CCC[C@H]1O[C@@H]2OC3(C)CCC4[C@H](C)CCC([C@H]1C)[C@]42OO3)C(=O)c1ccccc1 (stereo partly shown) [Compound 6b] | 11 | 0.45 | 0.79 | 6.3 | 5 |  |  |  |  |  |  |  | 
COC(=O)CNC(=O)C(CC[C@H]1O[C@@H]2OC3(C)CCC4[C@H](C)CCC([C@H]1C)[C@]42OO3)N(C(=O)c1ccccc1)C(C)C (stereo partly shown) [Compound 7] | > 100 |  | > 100 |  | > 100 |  |  |  |  |  |  |  | 
COC(=O)CNC(=O)C(CC[C@H]1O[C@@H]2OC3(C)CCC4[C@H](C)CCC([C@H]1C)[C@]42OO3)N(CCC[C@H]1O[C@@H]2OC3(C)CCC4[C@H](C)CCC([C@H]1C)[C@]42OO3)C(=O)C(F)(F)F (stereo partly shown) [Compound 6a] | 19 | 0.24 | 6.6 | 0.70 | 4.6 |  |  |  |  |  |  |  | 
COC(=O)CNC(=O)C(CC[C@H]1O[C@@H]2OC3(C)CCC4[C@H](C)CCC([C@H]1C)[C@]42OO3)N(CCC[C@H]1O[C@@H]2OC3(C)CCC4[C@H](C)CCC([C@H]1C)[C@]42OO3)C(=O)c1ccc(N(C)C)cc1 (stereo partly shown) [Compound 6d] | 12 | 1.3 | 0.88 | 17 | 15 |  |  |  |  |  |  |  | 
C[C@H]1[C@@H](CC(COC(=O)CCC(=O)O)C[C@H]2O[C@@H]3O[C@@]4(C)CC[C@H]5[C@H](C)CC[C@@H]([C@H]2C)[C@@]35OO4)O[C@@H]2O[C@@]3(C)CC[C@H]4[C@H](C)CC[C@@H]1[C@@]24OO3 (stereo partly shown) [Artemisinin dimer succinate, reference compound] |  | 88 |  | 210 |  | 0.24 | 0.1 | 21 | up to 500 times |  |  |  | 
C[C@H]1[C@@H](O)O[C@@H]2O[C@@]3(C)CC[C@H]4[C@H](C)CC[C@@H]1[C@@]24OO3 [dihydroartemisinin] |  |  |  |  |  |  |  |  |  | negligible activity |  |  | 
COC(=O)CNC(=O)C(CC[C@H]1O[C@@H]2OC3(C)CCC4[C@H](C)CCC([C@H]1C)[C@]42OO3)N(CCC[C@H]1O[C@@H]2OC3(C)CCC4[C@H](C)CCC([C@H]1C)[C@]42OO3)c1ccc([N+](=O)[O-])cc1 (stereo partly shown) [Compound 6f] | 1.2 | 39 | 0.096 | 490 | 47 |  |  |  |  |  | 5 |  | 
C[C@H]1[C@H](OC(=O)CCC(=O)O)O[C@@H]2O[C@@]3(C)CC[C@H]4[C@H](C)CC[C@@H]1[C@@]24OO3 [Artesunate, reference compound] |  | 0.46 |  | 2.7 | 21 |  |  |  |  |  |  | 46 | 7.8
COC(=O)CNC(=O)C(CC[C@H]1O[C@@H]2OC3(C)CCC4[C@H](C)CCC([C@H]1C)[C@]42OO3)N(CCC[C@H]1O[C@@H]2OC3(C)CCC4[C@H](C)CCC([C@H]1C)[C@]42OO3)C(=O)c1cnccn1 (stereo partly shown) [Compound 6e] | 26 | 0.96 | 1.7 | 15 | 25 |  |  |  |  |  |  |  | 
